# Laboratory results taken from patent publication US8017612B2, “Piperazine compound and use thereof as a HCV polymerase inhibitor” (priority 2006, dated 2011).
# pIC50: −log10 of the molar value.
# Columns and labels:
# [1] = molecular target: T1, HCV polymerase (NS5B) type 1b (Hepatitis C virus genotype 1b, UniProt P26663); experiment: Assay of enzyme (HCV polymerase) inhibitory activity, type 1b enzyme; type: biochemical, HCV BK strain (type 1b)
# T1 construct: a region encoding NS5B (J Virol 1991 March, 65(3), 1105-13, 544 amino acids after deletion of 47 amino acids on the C-terminal); 6xHis (C); made in house; host or cells: Escherichia coli
# Procedure, shortened: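 Polymerase activity was followed as radiolabelled UTP incorporation by E. coli-expressed, His-tagged NS5B of HCV type 1b lacking its last 47 residues. Conditions: 2 μM UTP, 50 μM other NTPs, Mg2+ buffer at pH 7.5, 25 °C for 60 min. Inhibition relative to compound-free reactions gave IC50.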
# [2] = molecular target: T2, HCV polymerase (NS5B) type 1a (Hepatitis C virus genotype 1a, UniProt P26664); experiment: Assay of enzyme (HCV polymerase) inhibitory activity, type 1a enzyme; type: biochemical, HCV type 1a (cloned from the blood of patients)
# T2 construct: made in house; host or cells: Escherichia coli (by the 'similar method' of the 1b enzyme)
# Procedure, shortened: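 IC50 values derive from radioactivity of newly synthesized RNA with versus without test compound. The enzyme was C-terminally truncated type 1a NS5B, 1.5 μg/ml, run 60 min at 25° C with 3H-UTP-labelled nucleotides.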
# [3] = HCV polymerase inhibitory activity (IC50), 1b, type 1b enzyme 0.5 μg/ml, 25° C., 60 min
# [4] = HCV polymerase inhibitory activity (IC50), 1a, type 1a enzyme 1.5 μg/ml, 25° C., 60 min
# [5] = HCV polymerase inhibitory activity IC50, 1b, type 1b enzyme
# [6] = HCV polymerase inhibitory activity IC50, 1a, type 1a enzyme
Structure (SMILES),"pIC50 [1, 3]","pIC50 [2, 4]","pIC50 [1, 5]","pIC50 [2, 6]"
"CCCc1ccc(CNC(=O)[C@H]2CN(C(=O)Cn3nnnc3C)CCN2S(=O)(=O)c2ccc(OC(F)(F)F)cc2)cc1 [Example 456, (R)-4-[2-(5-methyl-tetrazol-1-yl)-acetyl]-1-(4-trifluoromethoxy-benzenesulfonyl)-piperazine-2-carboxylic acid 4-propyl-benzylamide]",> 7.00,> 7.00,–,–
"O=C(NCc1ccc(OC(F)(F)F)cc1)[C@H]1CN(c2nn3cnnc3s2)CCN1S(=O)(=O)c1ccc(OC(F)(F)F)cc1 [Example 922, (R)-4-[1,2,4]triazolo[3,4-b][1,3,4]thiadiazol-6-yl-1-(4-trifluoromethoxy-benzenesulfonyl)-piperazine-2-carboxylic acid 4-trifluoromethoxy-benzylamide]",–,–,> 7.00,> 7.00
"CN(C)c1ccc(CNC(=O)[C@H]2CN(C(=O)CN3CCCCC3)CCN2S(=O)(=O)c2ccc(I)cc2)cc1 [Example 158, (R)-1-(4-iodo-benzenesulfonyl)-4-(2-piperidin-1-yl-acetyl)-piperazine-2-carboxylic acid 4-dimethylamino-benzylamide]",< 6.00,< 6.00,–,–
"O=C(NCc1ccc(OC(F)(F)F)cc1)[C@H]1CN(c2nc3nc(C(F)(F)F)ncc3s2)CCN1S(=O)(=O)c1ccc(OC(F)F)cc1 [Example 999, (R)-1-(4-difluoromethoxy-benzenesulfonyl)-4-(5-trifluoromethyl-thiazolo[4,5-d]pyrimidin-2-yl)-piperazine-2-carboxylic acid 4-trifluoromethoxy-benzylamide]",–,–,> 7.00,> 7.00
"CCN(C)c1ccc(CNC(=O)[C@H]2CN(c3nc4cn[nH]c(=O)c4s3)CCN2S(=O)(=O)c2ccc(OC(F)(F)F)cc2)cc1 [Example 883, (R)-4-(7-oxo-6,7-dihydro-thiazolo[4,5-d]pyridazin-2-yl)-1-(4-trifluoromethoxy-benzenesulfonyl)-piperazine-2-carboxylic acid 4-(ethyl-methyl-amino)-benzylamide]",–,–,> 7.00,> 7.00
"CC(=O)N1CCN(S(=O)(=O)c2ccc(C(C)C)cc2)[C@@H](C(=O)NCc2ccc(-c3ccoc3)cc2)C1 [Example 481, (R)-4-acetyl-1-(4-isopropyl-benzenesulfonyl)-piperazine-2-carboxylic acid 4-furan-3-yl-benzylamide]",6.00 to 7.00,6.00 to 7.00,–,–
"COCc1ncc2sc(N3CCN(S(=O)(=O)c4ccc(OC(F)(F)F)cc4)[C@@H](C(=O)NCc4ccc(OC(F)(F)F)cc4)C3)nc2n1 [Example 1043, (R)-4-(5-methoxymethyl-thiazolo[4,5-d]pyrimidin-2-yl)-1-(4-trifluoromethoxy-benzenesulfonyl)-piperazine-2-carboxylic acid 4-trifluoromethoxy-benzylamide]",–,–,> 7.00,> 7.00
"CC(C)c1ccc(CNC(=O)[C@H]2CN(c3ncn[nH]3)CCN2S(=O)(=O)c2ccc(C(F)(F)F)cc2)cc1 [Example 373, (R)-4-(2H-[1,2,4]triazol-3-yl)-1-(4-trifluoromethyl-benzenesulfonyl)-piperazine-2-carboxylic acid 4-isopropyl-benzylamide]",6.00 to 7.00,< 6.00,–,–
"CC(=O)N1CCN(S(=O)(=O)c2ccc3c(c2)CCCC3)[C@@H](C(=O)NCc2ccc(C(C)C)cc2)C1 [Example 203, (R)-4-acetyl-1-(5,6,7,8-tetrahydro-naphthalene-2-sulfonyl)-piperazine-2-carboxylic acid 4-isopropyl-benzylamide]",> 7.00,6.00 to 7.00,–,–
"CC(=O)N1CCN(S(=O)(=O)c2ccc(C(C)C)cc2)C(C(=O)NCc2ccc(Br)cc2)C1 (centres unmarked) [Example 54, 4-acetyl-1-(4-isopropyl-benzenesulfonyl)-piperazine-2-carboxylic acid 4-bromo-benzylamide]",< 6.00,< 6.00,–,–
"CCCc1ccc(CNC(=O)[C@H]2CN(c3nc(C)ns3)CCN2S(=O)(=O)c2ccc(OC(F)(F)F)cc2)cc1 [Example 563, (R)-4-(3-methyl-[1,2,4]thiadiazol-5-yl)-1-(4-trifluoromethoxy-benzenesulfonyl)-piperazine-2-carboxylic acid 4-propyl-benzylamide]",> 7.00,> 7.00,–,–
"CC(=O)N1CCN(S(=O)(=O)c2ccc3c(c2)OC(F)(F)C(F)(F)O3)[C@@H](C(=O)NCc2ccc(C(C)C)cc2)C1 [Example 306, (R)-4-acetyl-1-(2,2,3,3-tetrafluoro-2,3-dihydro-benzo[1,4]dioxine-6-sulfonyl)-piperazine-2-carboxylic acid 4-isopropyl-benzylamide]",6.00 to 7.00,6.00 to 7.00,–,–
"CCC(F)(F)c1ccc(CNC(=O)[C@H]2CN(C(=O)Nc3nc(C)ns3)CCN2S(=O)(=O)c2ccc(OC(F)(F)F)cc2)cc1 [Example 527, (R)-4-(4-trifluoromethoxy-benzenesulfonyl)-piperazine-1,3-dicarboxylic acid 3-[4-(1,1-difluoro-propyl)-benzylamide] 1-[(3-methyl-[1,2,4]thiadiazol-5-yl)-amide]]",6.00 to 7.00,6.00 to 7.00,–,–
"CCOC(=O)CCCCCC(=O)N1CCN(S(=O)(=O)c2ccc(C(F)(F)F)cc2)[C@@H](C(=O)NCc2ccc(C(C)C)cc2)C1 [Example 316, 7-[(R)-3-(4-isopropyl-benzylcarbamoyl)-4-(4-trifluoromethyl-benzenesulfonyl)-piperazin-1-yl]-7-oxo-heptanoic acid ethyl ester]",6.00 to 7.00,6.00 to 7.00,–,–
"CC(C)c1ccc(S(=O)(=O)N2CCN(C(=O)N(C)C)CC2C(=O)NCc2ccc(C(F)(F)F)cc2)cc1 (centres unmarked) [Example 59, 4-(4-isopropyl-benzenesulfonyl)-piperazine-1,3-dicarboxylic acid 1-dimethylamide 3-(4-trifluoromethyl-benzylamide)]",< 6.00,< 6.00,–,–
"COC(=O)c1ccc(N2CCN(S(=O)(=O)c3ccc(C(F)(F)F)cc3)[C@@H](C(=O)NCc3ccc(C(C)C)cc3)C2)nc1 [Example 303, 6-[(R)-3-(4-isopropyl-benzylcarbamoyl)-4-(4-trifluoromethyl-benzenesulfonyl)-piperazin-1-yl]-nicotinic acid methyl ester]",> 7.00,> 7.00,–,–
"O=C(NCCCc1ccccc1)[C@H]1CN(c2cnc3cncnc3n2)CCN1S(=O)(=O)c1ccc(OC(F)(F)F)cc1 [Example 811, (R)-4-pteridin-7-yl-1-(4-trifluoromethoxy-benzenesulfonyl)-piperazine-2-carboxylic acid (3-phenyl-propyl)-amide]",–,–,6.00 to 7.00,6.00 to 7.00
"COc1cccc(NC(=O)N2CCN(S(=O)(=O)c3ccc(C(F)(F)F)cc3)[C@@H](C(=O)NCc3ccc(C(C)C)cc3)C2)c1 [Example 273, (R)-4-(4-trifluoromethyl-benzenesulfonyl)-piperazine-1,3-dicarboxylic acid 3-(4-isopropyl-benzylamide) 1-[(3-methoxy-phenyl)-amide]]",6.00 to 7.00,< 6.00,–,–
"CCC(F)(F)c1ccc(CNC(=O)[C@H]2CN(c3nc4cn[nH]c(=O)c4s3)CCN2S(=O)(=O)c2ccc(OC(F)(F)F)cc2)cc1 [Example 821, (R)-4-(7-oxo-6,7-dihydro-thiazolo[4,5-d]pyridazin-2-yl)-1-(4-trifluoromethoxy-benzenesulfonyl)-piperazine-2-carboxylic acid 4-(1,1-difluoro-propyl)-benzylamide]",–,–,> 7.00,> 7.00
